According to PubChem BioAssay AID248 (DTP/NCI, 2004):
Values joined by “and” are separate entries in the source; they are usually repeats but may differ in a detail not shown here. Equal values may be shown once. Toxic doses and inconclusive results are not listed. No stated cut-off is given here; in the data, active means T/C of 150% or more; inactive means T/C below 125%.

Tested on: L1210 leukemia ip in BDF1 mice, survival T/C
Assay: NCI In Vivo Anticancer Drug Screen. Data for tumor model L1210 Leukemia (intraperitoneal) in B6D2F1 (BDF1) mice
Settings: endpoint: mean survival time, higher = longer survival
Outline: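 Read-out is survival time, reported as the treated-group measurement over the vehicle-control measurement.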

[1] = dose: 100.0 mg/kg/injection, schedule: Q01DX001 (ip), vehicle: carboxymethylcellulose (CMC)
[2] = dose: 200.0 mg/kg/injection, schedule: Q01DX001 (ip), vehicle: carboxymethylcellulose (CMC)
[3] = dose: 400.0 mg/kg/injection, schedule: Q01DX001 (ip), vehicle: carboxymethylcellulose (CMC)
[4] = dose: 100.0 mg/kg/injection, schedule: Q01DX001 (ip), vehicle: saline
[5] = dose: 300.0 mg/kg/injection, schedule: Q01DX001 (ip), vehicle: saline
[6] = dose: 50.0 mg/kg/injection, schedule: Q01DX009 (ip), vehicle: saline
[7] = dose: 100.0 mg/kg/injection, schedule: Q01DX009 (ip), vehicle: saline
[8] = dose: 100.0 mg/kg/injection, schedule: Q04DX002 (ip), vehicle: Klucel (hydroxypropylcellulose) (HPC)
[9] = dose: 100.0 mg/kg/injection, schedule: Q04DX003 (ip), vehicle: saline with Tween-80
[10] = dose: 200.0 mg/kg/injection, schedule: Q04DX002 (ip), vehicle: Klucel (hydroxypropylcellulose) (HPC)
[11] = dose: 200.0 mg/kg/injection, schedule: Q04DX003 (ip), vehicle: saline with Tween-80
[12] = dose: 400.0 mg/kg/injection, schedule: Q04DX002 (ip), vehicle: Klucel (hydroxypropylcellulose) (HPC)
[13] = dose: 75.0 mg/kg/injection, schedule: Q01DX001 (ip), vehicle: saline
[14] = dose: 100.0 mg/kg/injection, schedule: Q01DX009 (ip), vehicle: Klucel (hydroxypropylcellulose) (HPC)
[15] = dose: 100.0 mg/kg/injection, schedule: Q04DX003 (ip), vehicle: Klucel (hydroxypropylcellulose) (HPC)
[16] = dose: 200.0 mg/kg/injection, schedule: Q01DX009 (ip), vehicle: Klucel (hydroxypropylcellulose) (HPC)
[17] = dose: 200.0 mg/kg/injection, schedule: Q04DX003 (ip), vehicle: Klucel (hydroxypropylcellulose) (HPC)
[18] = dose: 400.0 mg/kg/injection, schedule: Q01DX009 (ip), vehicle: Klucel (hydroxypropylcellulose) (HPC)
[19] = dose: 400.0 mg/kg/injection, schedule: Q04DX003 (ip), vehicle: Klucel (hydroxypropylcellulose) (HPC)
[20] = dose: 100.0 mg/kg/injection, schedule: Q04DX003 (ip), vehicle: saline
[21] = dose: 200.0 mg/kg/injection, schedule: Q01DX009 (ip), vehicle: saline
[22] = dose: 200.0 mg/kg/injection, schedule: Q04DX003 (ip), vehicle: saline
[23] = dose: 400.0 mg/kg/injection, schedule: Q01DX009 (ip), vehicle: saline
[24] = dose: 400.0 mg/kg/injection, schedule: Q04DX003 (ip), vehicle: saline
[25] = dose: 50.0 mg/kg/injection, schedule: Q01DX009 (ip), vehicle: Klucel (hydroxypropylcellulose) (HPC)
[26] = dose: 400.0 mg/kg/injection, schedule: Q04DX003 (ip), vehicle: saline with Tween-80

Measured: T/C

O=[N+]([O-])c1cc(N(c2ccccc2)c2ccccc2)ccc1Cl
inactive: [1] 97 % of control | [2] 97 % of control | [3] 95 % of control

CCCCCC(=O)c1c(O)cc2c(c1O)C(=O)c1c(O)cc(O)cc1C2=O
inactive: [4] 86 % of control | [5] 91 % of control

O=C(CCNc1ccccc1)c1ccccc1
inactive: [6] 95 % of control | [7] 95 % of control | dose: 100.0 mg/kg/injection, schedule: Q04DX002 (ip), vehicle: saline 105 % of control | dose: 200.0 mg/kg/injection, schedule: Q04DX002 (ip), vehicle: saline 108 % of control

O=C(O)C1C2OC(C(Br)C2Br)C1C(=O)O (centres undefined)
inactive: [8] 106 % of control | [9] 93 % of control | [10] 98 % of control | [11] 95 % of control | [12] 95 % of control

O=c1oc(Cl)c(Cl)c(Cl)c1Cl
inactive: dose: 2.2 mg/kg/injection, schedule: Q01DX Z (ip), vehicle: methylcellulose (MC) 93 % of control

CCCCC(C)C1(CC)C(=O)NC(=O)NC1=O (centres undefined)
inactive: [13] 95 % of control

O=c1ccccn1CC1(c2ccccc2)OCCO1
inactive: [14] 98 % of control | [15] 102 % of control | [16] 104 % of control | [17] 96 % of control | [18] 100 % of control | [19] 94 % of control

CCOC(=O)N(Cc1ccccc1)C1CC1
inactive: dose: 25.0 mg/kg/injection, schedule: Q01DX009 (ip), vehicle: saline 95 % of control | dose: 25.0 mg/kg/injection, schedule: Q04DX003 (ip), vehicle: saline 104 % of control | [6] 104 % of control | [7] 102 % of control | [20] 104 % of control | [21] 98 % of control | [22] 104 % of control | [23] 103 % of control | [24] 102 % of control

COc1ccc(NC(=O)COc2ccc(Cl)cc2Cl)cc1
inactive: [8] 108 % of control | [10] 92 % of control | [12] 94 % of control

CC(c1ccccc1)n1ccnc1CO (centres undefined)
inactive: [25] 103 % of control and 112 % of control | dose: 50.0 mg/kg/injection, schedule: Q04DX003 (ip), vehicle: Klucel (hydroxypropylcellulose) (HPC) 98 % of control | [14] 102 % of control and 115 % of control | [15] 106 % of control | [16] 98 % of control

CCCCCCCC(=O)N(CCCCC)CCCCC
inactive: [1] 99 % of control | dose: 100.0 mg/kg/injection, schedule: Q01DX009 (ip), vehicle: carboxymethylcellulose (CMC) 93 % of control and 101 % of control | dose: 100.0 mg/kg/injection, schedule: Q04DX002 (ip), vehicle: carboxymethylcellulose (CMC) 97 % of control | dose: 100.0 mg/kg/injection, schedule: Q04DX003 (ip), vehicle: carboxymethylcellulose (CMC) 101 % of control | [2] 96 % of control | dose: 200.0 mg/kg/injection, schedule: Q01DX009 (ip), vehicle: carboxymethylcellulose (CMC) 97 % of control and 90 % of control | dose: 200.0 mg/kg/injection, schedule: Q04DX002 (ip), vehicle: carboxymethylcellulose (CMC) 107 % of control | dose: 200.0 mg/kg/injection, schedule: Q04DX003 (ip), vehicle: carboxymethylcellulose (CMC) 98 % of control | [3] 91 % of control | dose: 400.0 mg/kg/injection, schedule: Q04DX002 (ip), vehicle: carboxymethylcellulose (CMC) 96 % of control | dose: 400.0 mg/kg/injection, schedule: Q04DX003 (ip), vehicle: carboxymethylcellulose (CMC) 102 % of control

O=c1ccc([N+](=O)[O-])c[nH]1.[Ag]
inactive: dose: 6.25 mg/kg/injection, schedule: Q01DX009 (ip), vehicle: Klucel (hydroxypropylcellulose) (HPC) 86 % of control | dose: 12.5 mg/kg/injection, schedule: Q01DX009 (ip), vehicle: Klucel (hydroxypropylcellulose) (HPC) 86 % of control | dose: 12.5 mg/kg/injection, schedule: Q04DX003 (ip), vehicle: Klucel (hydroxypropylcellulose) (HPC) 88 % of control | dose: 25.0 mg/kg/injection, schedule: Q01DX009 (ip), vehicle: Klucel (hydroxypropylcellulose) (HPC) 95 % of control | dose: 25.0 mg/kg/injection, schedule: Q04DX003 (ip), vehicle: Klucel (hydroxypropylcellulose) (HPC) 99 % of control

Cc1ccc(Cl)cc1NC(=O)Nc1ccc(C)c(NC(=O)Nc2cc(Cl)ccc2C)c1
inactive: dose: 100.0 mg/kg/injection, schedule: Q01DX009 (ip), vehicle: saline with Tween-80 87 % of control | [9] 88 % of control | dose: 200.0 mg/kg/injection, schedule: Q01DX009 (ip), vehicle: saline with Tween-80 92 % of control | [11] 86 % of control | dose: 400.0 mg/kg/injection, schedule: Q01DX009 (ip), vehicle: saline with Tween-80 98 % of control | [26] 90 % of control

Nc1nc(N)nc(-c2ccccc2N=NN2CCCCC2)n1
inactive: [15] 101 % of control | [17] 94 % of control | [19] 95 % of control

O=c1[nH]c(=O)n(C2OC(CO)C(O)C2O)c2ccccc12 (centres undefined)
inactive: [4] 102 % of control | dose: 200.0 mg/kg/injection, schedule: Q01DX001 (ip), vehicle: saline 93 % of control | dose: 400.0 mg/kg/injection, schedule: Q01DX001 (ip), vehicle: saline 93 % of control

S=C(NCc1ccncc1)Nc1ccccc1Cl
inactive: [14] 101 % of control | [16] 95 % of control | [18] 98 % of control

Cc1cc(C)cc(C(C)C)c1
inactive: [9] 96 % of control | [11] 96 % of control | [26] 93 % of control

C=C(Cl)CSC1=NCCS1
inactive: dose: 100.0 mg/kg/injection, schedule: Q04DX002 (sc), vehicle: olive oil, sesame oil, peanut oil 90 % of control | dose: 200.0 mg/kg/injection, schedule: Q04DX002 (sc), vehicle: olive oil, sesame oil, peanut oil 100 % of control | dose: 400.0 mg/kg/injection, schedule: Q04DX002 (sc), vehicle: olive oil, sesame oil, peanut oil 100 % of control

CNC(=O)NCC1OC(n2cnc3c(N)ncnc32)C(O)C1O (centres undefined)
inactive: dose: 100.0 mg/kg/injection, schedule: Q01DX001 (ip), vehicle: Klucel (hydroxypropylcellulose) (HPC) 98 % of control | dose: 200.0 mg/kg/injection, schedule: Q01DX001 (ip), vehicle: Klucel (hydroxypropylcellulose) (HPC) 98 % of control | dose: 400.0 mg/kg/injection, schedule: Q01DX001 (ip), vehicle: Klucel (hydroxypropylcellulose) (HPC) 95 % of control

N#Cc1nc2c(n(O)c1=N)CCC/C2=C\c1ccccc1
inactive: [25] 103 % of control | [14] 103 % of control | [16] 93 % of control

Oc1ccc(O)c(-c2ccccc2)c1
inactive: [1] 93 % of control | [2] 101 % of control

CC(C)(C)S(=O)(=O)CCS(=O)(=O)C(C)(C)C
inactive: [7] 100 % of control | [8] 104 % of control | dose: 100.0 mg/kg/injection, schedule: Q04DX002 (ip), vehicle: saline with Tween-80 97 % of control | [21] 100 % of control | [10] 97 % of control | dose: 200.0 mg/kg/injection, schedule: Q04DX002 (ip), vehicle: saline with Tween-80 94 % of control | [23] 107 % of control | [12] 104 % of control | dose: 400.0 mg/kg/injection, schedule: Q04DX002 (ip), vehicle: saline with Tween-80 90 % of control

CC(=O)Nc1ccc(C(=O)/C=C/C(=O)O)c(O)c1
inactive: [20] 98 % of control | [22] 100 % of control | [24] 100 % of control

Oc1cc2c(cc1O)CN1CCc3cc(O)c(O)cc3C1C2 (centres undefined)
inactive: [13] 103 % of control | dose: 150.0 mg/kg/injection, schedule: Q01DX001 (ip), vehicle: saline 105 % of control | [5] 93 % of control
